The record followed here is patent publication US8815882B2, “Pyrazole aminopyrimidine derivatives as LRRK2 modulators” (Genentech, Inc., priority 2010, dated 2014).

T1 sequence (Q5S007 whole entry G2019S): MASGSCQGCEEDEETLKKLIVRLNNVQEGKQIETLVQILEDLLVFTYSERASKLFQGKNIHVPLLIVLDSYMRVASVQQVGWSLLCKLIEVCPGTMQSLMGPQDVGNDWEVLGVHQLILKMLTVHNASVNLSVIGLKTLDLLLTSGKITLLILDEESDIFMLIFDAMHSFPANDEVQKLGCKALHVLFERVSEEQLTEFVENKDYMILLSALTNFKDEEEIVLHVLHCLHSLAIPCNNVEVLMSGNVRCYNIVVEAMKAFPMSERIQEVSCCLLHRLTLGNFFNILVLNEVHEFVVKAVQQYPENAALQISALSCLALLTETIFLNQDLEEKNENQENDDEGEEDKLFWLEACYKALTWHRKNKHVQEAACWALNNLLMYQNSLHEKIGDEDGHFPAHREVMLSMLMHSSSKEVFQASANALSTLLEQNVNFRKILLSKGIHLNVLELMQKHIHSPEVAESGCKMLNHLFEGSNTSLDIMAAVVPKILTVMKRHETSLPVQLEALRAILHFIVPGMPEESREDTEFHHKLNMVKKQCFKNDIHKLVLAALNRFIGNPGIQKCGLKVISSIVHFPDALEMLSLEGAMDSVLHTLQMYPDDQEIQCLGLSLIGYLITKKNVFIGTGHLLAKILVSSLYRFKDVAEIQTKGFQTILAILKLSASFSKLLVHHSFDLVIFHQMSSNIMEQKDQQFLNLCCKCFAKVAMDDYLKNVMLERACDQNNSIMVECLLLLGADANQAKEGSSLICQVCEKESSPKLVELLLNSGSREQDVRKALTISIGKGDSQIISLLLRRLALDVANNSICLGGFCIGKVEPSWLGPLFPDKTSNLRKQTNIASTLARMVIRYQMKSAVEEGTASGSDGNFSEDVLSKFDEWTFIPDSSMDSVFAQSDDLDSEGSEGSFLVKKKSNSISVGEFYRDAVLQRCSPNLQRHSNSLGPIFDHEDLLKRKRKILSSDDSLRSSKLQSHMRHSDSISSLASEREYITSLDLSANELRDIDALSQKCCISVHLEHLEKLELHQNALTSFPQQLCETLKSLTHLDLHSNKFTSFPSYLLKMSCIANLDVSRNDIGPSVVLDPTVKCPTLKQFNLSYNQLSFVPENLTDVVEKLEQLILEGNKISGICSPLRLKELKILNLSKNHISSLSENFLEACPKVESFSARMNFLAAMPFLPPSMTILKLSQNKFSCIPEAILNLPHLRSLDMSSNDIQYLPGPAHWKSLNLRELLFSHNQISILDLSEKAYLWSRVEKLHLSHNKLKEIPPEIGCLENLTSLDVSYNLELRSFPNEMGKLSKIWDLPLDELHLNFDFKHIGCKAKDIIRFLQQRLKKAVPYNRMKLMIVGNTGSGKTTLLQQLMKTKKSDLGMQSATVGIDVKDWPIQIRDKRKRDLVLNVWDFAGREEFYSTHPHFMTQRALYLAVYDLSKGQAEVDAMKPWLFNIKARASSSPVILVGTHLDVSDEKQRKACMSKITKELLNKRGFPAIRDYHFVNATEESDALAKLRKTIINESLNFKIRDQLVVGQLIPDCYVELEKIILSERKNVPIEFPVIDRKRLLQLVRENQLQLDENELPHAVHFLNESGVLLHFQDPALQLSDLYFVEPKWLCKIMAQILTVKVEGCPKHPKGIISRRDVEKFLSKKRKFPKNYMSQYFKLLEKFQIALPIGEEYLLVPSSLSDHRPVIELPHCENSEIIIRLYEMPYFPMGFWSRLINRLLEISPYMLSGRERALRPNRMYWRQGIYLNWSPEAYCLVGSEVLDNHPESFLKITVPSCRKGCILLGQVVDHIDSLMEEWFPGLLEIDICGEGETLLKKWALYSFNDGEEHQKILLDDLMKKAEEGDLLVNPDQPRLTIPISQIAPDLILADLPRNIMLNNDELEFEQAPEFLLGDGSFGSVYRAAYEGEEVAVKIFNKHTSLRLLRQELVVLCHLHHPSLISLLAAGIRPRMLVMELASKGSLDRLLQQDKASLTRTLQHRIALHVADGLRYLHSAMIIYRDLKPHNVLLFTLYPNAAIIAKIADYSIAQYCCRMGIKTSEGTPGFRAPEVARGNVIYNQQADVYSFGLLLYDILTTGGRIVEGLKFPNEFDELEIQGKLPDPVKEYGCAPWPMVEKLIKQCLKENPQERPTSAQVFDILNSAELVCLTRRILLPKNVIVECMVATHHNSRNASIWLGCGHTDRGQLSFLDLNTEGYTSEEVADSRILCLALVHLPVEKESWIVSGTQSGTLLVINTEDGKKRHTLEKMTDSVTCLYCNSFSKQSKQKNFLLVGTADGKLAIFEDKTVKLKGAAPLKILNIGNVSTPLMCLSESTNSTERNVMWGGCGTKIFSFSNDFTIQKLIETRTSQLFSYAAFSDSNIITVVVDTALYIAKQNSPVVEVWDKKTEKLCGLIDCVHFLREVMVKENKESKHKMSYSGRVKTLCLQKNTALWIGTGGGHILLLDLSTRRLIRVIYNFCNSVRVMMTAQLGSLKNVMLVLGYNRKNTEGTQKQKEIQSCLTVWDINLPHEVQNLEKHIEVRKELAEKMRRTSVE

The first assay addresses T1, LRRK2 (Homo sapiens, UniProt Q5S007, G2019S).
T1 construct: purchased Invitrogen PV4882 (lot 567054A)
As to the kind of experiment: In Vitro LRRK2 Assay (LabChip 3000, fluorescently-labeled peptide substrate, ATP). The note with it: Table 10; LRRK2 Ki (micromolar); read-out: LRRK2 Ki (KI). In kind it is biochemical. The method, boiled down: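 LRRK2, fluorescent peptide substrate (diluted to 4 μM before mixing), ATP and compound were incubated 2 h in the dark, then stopped. Phosphorylated and unphosphorylated peptide were separated by capillary electrophoresis and quantified by fluorescence. Ki was fitted with a tight-binding equation including enzyme concentration, S and Km; IC50 or percent inhibition were also reported.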
As for `CNc1nc(Nc2cn(C(C)(C)C(=O)NCC(F)(F)F)nc2C)ncc1C(F)(F)F` [Example 424], the Ki was 6.3 nM.

As for `CNc1nc(Nc2cn(CC(=O)N(C)C)nc2C)ncc1C(F)(F)F` [Example 396, N,N-dimethyl-2-(3-methyl-4-(4-(methylamino)-5-(trifluoromethyl)pyrimidin-2-ylamino)-1H-pyrazol-1-yl)acetamide], the Ki amounted to 4 nM.

The same assay, now with this note: read-out: LRRK2 Ki (KI), Table 7.
As to `COc1nc(Nc2cc(C(C)C)nn2C)ncc1Cl` [Example 41, 5-Chloro-N-(3-isopropyl-1-methyl-1H-pyrazol-5-yl)-4-methoxy-pyrimidin-2-amine], the Ki was 70 nM.

As for `Cc1c(Nc2ncc(Cl)c(OCC(F)(F)F)n2)cnn1C` [Example 64, 5-chloro-N-(1,5-dimethyl-1H-pyrazol-4-yl)-4-(2,2,2-trifluoroethoxy) pyrimidin-2-amine], the Ki amounted to 58.6 nM.

Staying with this assay, now noted: read-out: LRRK2 Ki (KI), Table 8.
As for `CNc1nc(Nc2cnn(C(C)(C)c3cnn(C)c3)c2C)ncc1C(F)(F)F` [Example 341, N4-methyl-N2-(5-methyl-1-(2-(1-methyl-1H-pyrazol-4-yl)propan-2-yl)-1H-pyrazol-4-yl)-5-(trifluoromethyl) pyrimidine-2,4-diamine], the inhibition constant (Ki) is 6.1 nM.

Turning to `CNc1nc(Nc2cn([C@H]3CCN(C4COC4)C3)nc2C)ncc1C(F)(F)F` [Example 276, N4-Methyl-N2-[3-methyl-1-((S)-1-oxetan-3-yl-pyrrolidin-3-yl)-1H-pyrazol-4-yl]-5-trifluoromethyl-pyrimidine-2,4-diamine], the Ki was 3.9 nM.

Turning to `Cc1c(Nc2ncc(C(F)(F)F)c(NCC3CCOCC3)n2)cnn1C` [Example 232, N2-(1,5-dimethyl-1H-pyrazol-4-yl)-N4-((tetrahydro-2H-pyran-4-yl)methyl)-5-(trifluoromethyl) pyrimidine-2,4-diamine], the inhibition constant (Ki) was 9.6 nM.

As to `CNc1nc(Nc2cnn([C@@H]3CCN(C4COC4)C3)c2C)ncc1C(F)(F)F` [Example 211, (R)-N4-methyl-N2-(5-methyl-1-(1-(oxetan-3-yl)pyrrolidin-3-yl)-1H-pyrazol-4-yl)-5-(trifluoromethyl) pyrimidine-2,4-diamine], the Ki came out at 3.3 nM.

With `CNc1nc(Nc2cn(C3CC(C)OC(C)C3)nc2C)ncc1C(F)(F)F` (centres unmarked) [Example 191, N2-(1-(2,6-dimethyltetrahydro-2H-pyran-4-yl)-3-methyl-1H-pyrazol-4-yl)-N4-methyl-5-(trifluoromethyl) pyrimidine-2,4-diamine], the Ki is 84.6 nM.

Take `CNc1nc(Nc2cn(-c3ccc(C#N)cc3)nc2C)ncc1C(F)(F)F` [Example 148, 4-(3-methyl-4-(4-(methylamino)-5-(trifluoromethyl)pyrimidin-2-ylamino)-1H-pyrazol-1-yl)benzonitrile]: the Ki was found to be 0.3 nM.

`CNc1nc(Nc2cnn(-c3ccnc(C)c3)c2C)ncc1C(F)(F)F` [Example 142, N4-methyl-N2-(5-methyl-1-(2-methylpyridin-4-yl)-1H-pyrazol-4-yl)-5-(trifluoromethyl) pyrimidine-2,4-diamine]: the inhibitory constant (Ki) amounted to 0.3 nM.

With `CCNc1nc(Nc2cnn(CC(C)(C)O)c2Cl)ncc1C(F)(F)F` [Example 234, 1-(5-chloro-4-(4-(ethylamino)-5-(trifluoromethyl)pyrimidin-2-ylamino)-1H-pyrazol-1-yl)-2-methylpropan-2-ol], the Ki came out at 3.1 nM.

For `CNc1nc(Nc2cn(C3CCCC3OC)nc2C)ncc1C(F)(F)F` (centres unmarked) [Example 188, N2-(1-(2-methoxycyclo-pentyl)-3-methyl-1H-pyrazol-4-yl)-N4-methyl-5-(trifluoromethyl) pyrimidine-2,4-diamine], the inhibition constant Ki is 12 nM.

Consider `CNc1nc(Nc2cn(-c3ncccn3)nc2C)ncc1C(F)(F)F` [Example 128, N4-methyl-N2-(3-methyl-1-(pyrimidin-2-yl)-1H-pyrazol-4-yl)-5-(trifluoromethyl) pyrimidine-2,4-diamine], for which the Ki came to 11.4 nM.

In the case of `CNc1nc(Nc2cn(C3CCN(C)CC3)nc2C)ncc1C(F)(F)F` [Example 209, N4-methyl-N2-(3-methyl-1-(1-methylpiperidin-4-yl)-1H-pyrazol-4-yl)-5-(trifluoromethyl) pyrimidine-2,4-diamine], the Ki worked out at 41 nM.

Consider `CNc1nc(Nc2cnn(Cc3ncccn3)c2C)ncc1C(F)(F)F` [Example 315, N4-Methyl-N2-(5-methyl-1-pyrimidin-2-ylmethyl-1H-pyrazol-4-yl)-5-trifluoromethyl-pyrimidine-2,4-diamine], for which the inhibition constant Ki stood at 1.4 nM.

On to `CNc1nc(Nc2cn(-c3ccncc3C)nc2C)ncc1C(F)(F)F` [Example 269, N4-Methyl-N2-[3-methyl-1-(3-methyl-pyridin-4-yl)-1H-pyrazol-4-yl]-5-trifluoromethyl-pyrimidine-2,4-diamine], for which the inhibition constant (Ki) worked out at 9.1 nM.

Consider `CCNc1nc(Nc2cnn(C3CCOCC3)c2C)ncc1C(F)(F)F` [Example 158, N4-ethyl-N2-(5-methyl-1-(tetrahydro-2H-pyran-4-yl)-1H-pyrazol-4-yl)-5-(trifluoromethyl) pyrimidine-2,4-diamine], for which the Ki was 0.3 nM.

Regarding `CCNc1nc(Nc2cn(C(C)(C)c3ccn(C)n3)nc2C)ncc1C(F)(F)F` [Example 342, N4-ethyl-N2-(3-methyl-1-(2-(1-methyl-1H-pyrazol-3-yl)propan-2-yl)-1H-pyrazol-4-yl)-5-(trifluoromethyl) pyrimidine-2,4-diamine], the Ki was 21.7 nM.

For the molecule `CCNc1nc(Nc2cnn(CCOC)c2C)ncc1C(F)(F)F` [Example 295, N4-Ethyl-N2-[1-(2-methoxy-ethyl)-5-methyl-1H-pyrazol-4-yl]-5-trifluoromethyl-pyrimidine-2,4-diamine], the inhibitory constant (Ki) was 0.4 nM.

Regarding `CCNc1nc(Nc2cn(-c3ccc(S(C)(=O)=O)cc3)nc2C)ncc1C(F)(F)F` [Example 266, N4-Ethyl-N2-[1-(4-methanesulfonyl-phenyl)-3-methyl-1H-pyrazol-4-yl]-5-trifluoromethyl-pyrimidine-2,4-diamine], the inhibition constant (Ki) was 2.1 nM.

With `CCNc1nc(Nc2cn(S(=O)(=O)CC)nc2C)ncc1C(F)(F)F` [Example 243, N4-ethyl-N2-(1-(ethylsulfonyl)-3-methyl-1H-pyrazol-4-yl)-5-(trifluoromethyl) pyrimidine-2,4-diamine], the Ki was found to be 0.5 nM.

Consider `CCNc1nc(Nc2cn(C(C)(C)c3nnc(C)o3)nc2C)ncc1C(F)(F)F` [Example 336, N4-ethyl-N2-(3-methyl-1-(2-(5-methyl-1,3,4-oxadiazol-2-yl)propan-2-yl)-1H-pyrazol-4-yl)-5-(trifluorometliyl) pyrimidine-2,4-diamine], for which the Ki was 1.2 nM.

With `CCNc1nc(Nc2cn(C3CN(C4COC4)C3)nc2C)ncc1C(F)(F)F` [Example 182, N4-ethyl-N2-(3-methyl-1-(1-(oxetan-3-yl)azetidin-3-yl)-1H-pyrazol-4-yl)-5-(trifluoromethyl) pyrimidine-2,4-diamine], the Ki was 1.5 nM.

In the case of `CNc1nc(Nc2cn(-c3ccc(F)cc3)nc2C)ncc1Br` [Example 108, 5-bromo-N2-(1-(4-fluorophenyl)-3-methyl-1H-pyrazol-4-yl)-N4-methylpyrimidine-2,4-diamine], the Ki came out at 0.3 nM.

Turning to `CCS(=O)(=O)n1cc(Nc2ncc(C(F)(F)F)c(NC)n2)c(C)n1` [Example 249, N^2-(1-(ethylsulfonyl)-3-methyl-1H-pyrazol-4-yl)-N4-methyl-5-(trifluoromethyl) pyrimidine-2,4-diamine], the inhibition constant (Ki) came out at 3.3 nM.
